In patent publication US6753409B1, “STABLE NON-HYGROSCOPIC CRYSTALLINE FORM OF N-[N-[N-(4-(PIPERIDIN-4-YL)BUTANOYL)-N-ETHYLGLYCYL]ASPARTYL]-L-β-CYCLOHEXYL ALANINE AMIDE, INTERMEDIATES THEREOF, AND PREPARATION THEREOF AND OF ANTITHROMBOTIC AZACYCLOALKYLALKANOYL PEPTIDES AND PSEUDOPEPTIDES” (Aventis Pharmaceuticals Inc., priority 1996, dated 2004):
Where two headings read alike, the source gives them in different places. Values belong to the compound of their own block, whether it stands above or below them.

Assays:
[1] = Hygroscopicity and physical stability of the material prepared according to WO95/10295 (statement); assay type: physicochemical
[2] = test system: fixed activated platelets; assay: Platelet Aggregation Assay (fixed-activated platelets, aggregation initiated by human fibrinogen); assay type: cell-based; details: human fibrinogen 250 μg/mL, read-out: Inhibition of Fixed Platelet Aggregation (IC50 μM)
Text: (§1) The Platelet Aggregation Assay is based on that described in Blood 66 (4), 946-952 (1985). The Fibrinogen-Binding Assay is essentially that of Ruggeri, Z. M., et al., Proc. Nail. Acad. Sci. USA 83, 5708-5712 (1986) and Plow, E. F., et al., Proc. Natl. Acad Sci., USA 82, 8057-8061 (1985). The Inhibition of ADP-lndticed ex-vivo Platelet Aggregation assay is based on that of Zucker, “Platelet Aggregation Measured by the Photoelectric Method”, Methods in Enzymology 169, 117-133 (1989).
Platelets are isolated from human platelet concentrates using the gel-filtration technique as described by Marguerie, G. A. et al., J. Biol. Chem. 254, 5357-5363 (1979) and Ruggeri, Z. M. et al., J. Clin. Invest. 72, 1-12 (1983). The platelets are suspended at a concentration of 2×10^8 cells/mL in a modified calcium-free Tyrode's buffer containing 127 mM sodium chloride, 2 mM magnesium chloride, 0.42 mM Na2HPO4, 11.9 mM NaHCO3, 2.9 mM KCl, 5.5 mM glucose, 10 mM HEPES, at a pH of 7.35 and 0.35% human serum albumin (HSA). […]
The fixed activated platelets are incubated with a selected dose of the compound to be tested for platelet aggregation inhibition for one minute andfaggregation initiated by addition of human fibrinogen to a final concentration of 250 μg/mL. […] The extent of inhibition of aggregation is expressed as the percentage of the rate of aggregation observed in the absence of inhibitor. […]

[3] = test system: ADP-induced platelet aggregation in platelet rich plasma; assay: Inhibition of ADP-Induced ex-vivo Platelet Aggregation after oral administration; assay type: in vivo, mongrel dogs; details: dog, 5 mg/kg; for % Inhibition of ex-vivo Platelet Aggregation After Oral Administration, 1 h: 1 h after dosing; for % Inhibition of ex-vivo Platelet Aggregation After Oral Administration, 3 h: 3 h after dosing
Text: as §1
Control blood samples are obtained 5-10 minutes prior to administration of a test compound in mongrel dogs weighing from 10 to 20 Kg. The compound is administered intragasticly, via aqueous gavage, or orally, via gelatin capsule. Blood samples (5 ml) are then obtained at 30 minute intervals for 3 hours, and at 6, 12, and 24 hours after dosing. Each blood sample is obtained by venipuncture of the cephalic vein and is collected directly into a plastic syringe containing one part 3.8% trisodium citrate to nine parts blood.
The blood samples are centrifuged at 1000 rpm for 10 minutes to obtain platelet rich plasma (PRP). After removal of the PRP, the sample is centrifuged for an additional 10 minutes at 2000 rpm to obtain platelet poor plasma (PPP). Platelet count in the PRP is determined by using a Coulter Counter (Coulter Electronics, Hialeah, Fla.). If the concentration of platelets in the PRP is greater than 300,000 platelets/μL, then the PRP is diluted with PPP to adjust the platelet count to 300,000 platelets/μL. Aliquots of PRP (250 μL) are then placed in siliconized glass cuvettes (7.25×55 mm, Bio/Data Corp., Horsham, Pa.). Epinephrine (final concentration of 1 μM) is then added to the PRP, which is incubated for one minute at 37° C. A stimulator of platelet aggregation ADP at a final concentration of 10 μM, is then added to the PRP. Platelet aggregation is monitored spectrophotometrically utilizing a light transmission aggregometer (Bio/Data Platelet Aggregation Profiler, Model PAP-4, Bio/Data Corp., Horsham, Pa.). For the testing of a compound, the rate of change (slope) of light transmittance and the maximum light transmittance (maximum aggregation) is recorded in duplicate. Platelet aggregation data are reported as the percent decrease (mean±SEM) in slope or maximum aggregation as compared to data obtained from control PRP, which is prepared from blood samples obtained prior to administration of the test compound.

[4] = Isothermal microcalorimetry of solid state form conversion (Thermal Activity Monitor); assay type: physicochemical; details: for thermal activity (form conversion) on exposure to humidity: 80% RH (saturated KCl solution), over 30 hours; for time for conversion of hygroscopic to non-hygroscopic form: 80% RH
Method: Isothermal microcalorimetry experiments on hygroscopic and non-hygroscopic crystalline forms of N-[N-[N-(4-piperdin-4-yl)butanoyl)-N-ethylglycyl]-(L)-aspartyl]-(L)-β-cyclohexylalanine amide are performed on a Thermometric® Thermal Activity Monitor (TAM). Solid state conversions of the different chrystalline forms are studied by exposing the forms to different humidities or solvent vapors at different temperatures. The saturated salt solutions used to obtain different humidities were: KCl (80% RH), NaCl (75% RH), and NaBr (65% RH). Approximately 100 mg quantities of the forms are weighed into a TAM glass ampule and a microhygrostate containing a saturated salt solution (with excess solid) or an organic solvent is placed inside the ampule. The ampule is sealed, equilibrated to the temperature of the experiment, and lowered into the measuring position in the TAM. An identical system containing washed sea sand, in place of the form subject to testing, is placed on the reference side. Output power (μW) is measured as a function of time (FIGS. 6-8).

[5] = Moisture sorption isotherms (VTI MB300G moisture balance); assay type: physicochemical; details: 25° C.; for desorption to original weight %: decreasing RH
Method: Moisture Sorption Isotherms of hygroscopic and non-hygroscopic crystalline forms of N-[N-[N-(4-piperdin-4-yl)butanoyl)-N-ethylglycyl]-(L)-aspartyl]-(L)-β-cyclohexylalanine amide are obtained on a VTI MB300G moisture balance. The experiments are conducted either by subjecting approximately 15 mg of the subject crystalline form to increasing and decreasing steps of % RH and following the weight gain (at each equilibrium step) as a function of % RH (FIG. 9) or by holding the subject crystalline form at constant humidity and following the weight gain as a function of time.

SMILES: CCN(CC(=O)N[C@@H](CC(=O)O)C(=O)N[C@@H](CC1CCCCC1)C(N)=O)C(=O)CCCC1CCNCC1 [N-[N-[N-(4-(piperdin-4-yl)butanoyl)-N-ethylglycyl]-(L)-aspartyl]-(L)-β-cyclohexylalanine amide]
- hygroscopicity and physical stability [1]: hygroscopic and is physically unstable as it absorbs moisture

SMILES: O=C(O)C[C@H](NC(=O)CNC(=O)CCCC1CCNCC1)C(=O)N[C@@H](Cc1c[nH]c2ccccc12)C(=O)O [Compound of EPA ‘481, 4-4(piperidyl)butanoyl glycyl aspartyl tryptophan, reference compound]
- IC50 [2]: 0.047 µM
- % Inhibition of ex-vivo Platelet Aggregation After Oral Administration, 1 h [3]: 53%
- % Inhibition of ex-vivo Platelet Aggregation After Oral Administration, 3 h [3]: <20%

SMILES: CCN(CC(=O)N[C@@H](CC(=O)O)C(=O)N[C@@H](CC1CCCCC1)C(N)=O)C(=O)CCCC1CCNCC1 [non-hygroscopic form]
- thermal activity (form conversion) on exposure to humidity ([4]; 40° C.): no exothermic conversion event takes place
- desorption to original weight % [5]: does desorb to its original weight %

Further lines, with some results ahead:

- IC50 ([2]; Platelet): 0.097 µM
SMILES: CCN(CC(=O)N[C@@H](CC(=O)O)C(=O)N[C@@H](CC1CCCCC1)C(N)=O)C(=O)CCCC1CCNCC1 [Example 15]
- % Inhibition of ex-vivo Platelet Aggregation After Oral Administration, 1 h [3]: 100%
- % Inhibition of ex-vivo Platelet Aggregation After Oral Administration, 3 h [3]: 100%
- % Inhibition of ex-vivo Platelet Aggregation After Oral Administration, 6 h ([3]; 6 h after dosing): 100%
- % Inhibition of ex-vivo Platelet Aggregation After Oral Administration, 12 h ([3]; 12 h after dosing): 98%
- % Inhibition of ex-vivo Platelet Aggregation After Oral Administration, 24 h ([3]; 24 h after dosing): 50%

- thermal activity (form conversion) on exposure to humidity ([4]; 40° C., listed as hygroscopic form): strong exothermic event takes place
- time for conversion of hygroscopic to non-hygroscopic form ([4]; 40° C.): approximately 24 hours
- time for conversion of hygroscopic to non-hygroscopic form ([4]; 50° C.): ~6.5 h
- time for conversion of hygroscopic to non-hygroscopic form ([4]; 60° C.): ~3 h
- liquification during conversion ([4]; 100% RH, 60° C.): without the liquification
- desorption to original weight % ([5]; listed as hygroscopic form): does not desorb to its original weight %
SMILES: CCN(CC(=O)N[C@@H](CC(=O)O)C(=O)N[C@@H](CC1CCCCC1)C(N)=O)C(=O)CCCC1CCNCC1 [hygroscopic crystalline form]
- effect of relative humidity on rate of conversion to non-hygroscopic form ([4]; 60° C., 65% RH, 75% RH, 80% RH and 100% RH): higher relative humidities produce a faster conversion
- thermal activity (form conversion) on exposure to methanol vapors ([4]; methanol vapors, 40° C.): no exothermic conversion event takes place
- % weight gain vs. % RH (water uptake) ([5]; increasing RH, more pronounced above 60% RH): picks up more water than the non-hygroscopic form as the RH increases
